Test results as given in ChEMBL document CHEMBL4837225, “Water-soluble derivatives of evodiamine: Discovery of evodiamine-10-phosphate as an orally active antitumor lead compound” (Eur J Med Chem, 2021).
pIC50: −log10 of the molar value. ≈ marks a conversion by molar mass, not a printed value. Calls of active or inactive are those of the source. The calls are words filed in the database; no cut-off is given here.

What was measured:
[1] = system: HCT-116; test: Induction of apoptosis in human HCT-116 cells assessed as late apoptotic cells level at 0.5 uM incubated for 48 hrs by annexin V-FITC/propidium iodide staining based flow cytometry (reference value: 1.87%); type: functional
[2] = system: HCT-116; test: Cell cycle arrest in human HCT-116 cells assessed as accumulation at G2 phase at 0.1 uM incubated for 24 hrs by propidium iodide staining based flow cytometric analysis (Rvb =20 %); type: functional
[3] = system: HCT-116; test: Induction of apoptosis in human HCT-116 cells assessed as increase in caspase-3 level at 0.2 to 5 uM measured after 24 hrs by Western blot analysis; type: functional, cell-based; details: dose 0.2-5 µM
[4] = system: HCT-116; test: Induction of apoptosis in human HCT-116 cells assessed as upregulation of Bax expression at 0.2 to 5 uM measured after 24 hrs by Western blot analysis; type: functional, cell-based; details: dose 0.2-5 µM
[5] = molecular target: T1, DNA topoisomerase 1 (Homo sapiens) (UniProt P11387); test: Inhibition of TOP1 (unknown origin) assessed as decrease in relaxation of supercoiled DNA using pBR322 plasmid DNA by ethidium bromide staining based gel electrophoresis
T1 sequence (whole entry): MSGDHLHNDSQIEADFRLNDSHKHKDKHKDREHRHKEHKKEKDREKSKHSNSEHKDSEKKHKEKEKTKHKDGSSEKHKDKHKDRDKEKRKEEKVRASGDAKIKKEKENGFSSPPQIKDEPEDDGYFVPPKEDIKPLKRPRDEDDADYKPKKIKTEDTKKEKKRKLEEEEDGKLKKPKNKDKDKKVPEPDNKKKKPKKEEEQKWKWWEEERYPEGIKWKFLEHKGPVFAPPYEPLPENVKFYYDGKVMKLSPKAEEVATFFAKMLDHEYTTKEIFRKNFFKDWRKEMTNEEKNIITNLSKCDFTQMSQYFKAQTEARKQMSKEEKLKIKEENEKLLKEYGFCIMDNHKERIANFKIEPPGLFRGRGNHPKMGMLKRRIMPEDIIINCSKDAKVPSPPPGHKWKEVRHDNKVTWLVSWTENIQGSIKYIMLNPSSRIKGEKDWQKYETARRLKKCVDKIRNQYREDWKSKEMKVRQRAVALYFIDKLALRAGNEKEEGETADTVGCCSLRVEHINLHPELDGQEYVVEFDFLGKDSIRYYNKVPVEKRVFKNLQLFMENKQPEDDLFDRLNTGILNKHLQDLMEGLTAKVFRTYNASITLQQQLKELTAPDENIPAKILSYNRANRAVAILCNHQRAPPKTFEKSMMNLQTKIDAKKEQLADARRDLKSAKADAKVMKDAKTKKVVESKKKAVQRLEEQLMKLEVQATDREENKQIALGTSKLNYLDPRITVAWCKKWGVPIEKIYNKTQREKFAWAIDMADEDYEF

[6] = system: HCT-116; test: Antiproliferative activity against human HCT-116 cells assessed as inhibition of cell proliferation incubated for 72 hrs by CCK8 assay; type: functional, cell-based; details: HCT-116, 72 h
[7] = system: HCT-116; test: Induction of apoptosis in human HCT-116 cells assessed as downregulation of Bcl-2 expression at 0.2 to 5 uM measured after 24 hrs by Western blot analysis; type: functional, cell-based; details: dose 0.2-5 µM
[8] = system: HCT-116; test: Antitumor activity against human HCT-116 cells xenografted in BALB/c nude mouse assessed as necrosis at 150 mg/kg, po bid by H&E staining based light microscopic analysis; type: functional, organism-based
[9] = molecular target: DNA topoisomerase 2-alpha (Homo sapiens) (UniProt P11388); test: Inhibition of TOP2 (unknown origin) assessed as formation of short DNA fragments using supercoiled plasmid DNA at 100 uM by ethidium bromide staining based gel
DNA topoisomerase 2-alpha (Homo sapiens), sequence (P11388 whole entry, the tested form may be a part): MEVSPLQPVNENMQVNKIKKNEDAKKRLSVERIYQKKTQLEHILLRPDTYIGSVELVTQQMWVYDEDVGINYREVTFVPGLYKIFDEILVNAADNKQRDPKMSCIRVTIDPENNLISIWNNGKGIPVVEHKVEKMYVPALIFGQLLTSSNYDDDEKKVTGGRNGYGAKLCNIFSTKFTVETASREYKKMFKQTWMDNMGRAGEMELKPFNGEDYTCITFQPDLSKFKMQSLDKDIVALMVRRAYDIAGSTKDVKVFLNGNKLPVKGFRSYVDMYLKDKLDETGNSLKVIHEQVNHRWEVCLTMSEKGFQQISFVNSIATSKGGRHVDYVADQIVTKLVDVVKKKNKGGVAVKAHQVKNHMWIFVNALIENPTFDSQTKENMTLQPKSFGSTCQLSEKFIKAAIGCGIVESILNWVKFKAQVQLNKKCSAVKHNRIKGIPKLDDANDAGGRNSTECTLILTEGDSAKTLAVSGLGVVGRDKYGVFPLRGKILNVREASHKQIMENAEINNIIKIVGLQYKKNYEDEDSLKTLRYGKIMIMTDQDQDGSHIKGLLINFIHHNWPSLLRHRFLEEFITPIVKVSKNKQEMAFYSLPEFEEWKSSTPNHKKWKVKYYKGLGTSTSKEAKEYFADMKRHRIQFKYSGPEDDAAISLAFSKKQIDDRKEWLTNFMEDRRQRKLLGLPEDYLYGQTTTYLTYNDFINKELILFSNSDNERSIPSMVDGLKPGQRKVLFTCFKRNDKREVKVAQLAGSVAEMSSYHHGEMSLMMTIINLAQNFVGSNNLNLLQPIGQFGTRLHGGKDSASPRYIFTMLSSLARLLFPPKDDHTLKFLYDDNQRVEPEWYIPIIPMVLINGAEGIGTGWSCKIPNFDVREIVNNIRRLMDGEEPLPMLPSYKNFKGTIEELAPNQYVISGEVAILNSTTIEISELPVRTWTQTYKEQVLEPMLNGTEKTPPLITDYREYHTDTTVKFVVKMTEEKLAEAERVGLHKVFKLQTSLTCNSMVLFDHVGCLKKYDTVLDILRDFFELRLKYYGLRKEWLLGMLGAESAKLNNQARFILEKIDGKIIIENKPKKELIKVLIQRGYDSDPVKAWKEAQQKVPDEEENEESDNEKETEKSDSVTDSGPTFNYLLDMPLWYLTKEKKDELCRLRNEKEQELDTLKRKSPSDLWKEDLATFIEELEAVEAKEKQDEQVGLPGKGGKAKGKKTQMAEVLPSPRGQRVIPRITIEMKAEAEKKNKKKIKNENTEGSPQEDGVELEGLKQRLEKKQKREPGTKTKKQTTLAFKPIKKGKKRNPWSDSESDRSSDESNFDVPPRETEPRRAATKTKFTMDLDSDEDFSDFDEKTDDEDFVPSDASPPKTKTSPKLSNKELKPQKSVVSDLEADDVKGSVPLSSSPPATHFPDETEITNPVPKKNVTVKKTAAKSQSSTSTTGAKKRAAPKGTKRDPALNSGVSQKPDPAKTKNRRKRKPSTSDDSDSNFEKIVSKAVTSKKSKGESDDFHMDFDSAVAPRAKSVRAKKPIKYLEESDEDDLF

[10] = system: HCT-116; test: Antitumor activity against human HCT-116 cells xenografted in BALB/c nude mouse assessed as inhibition of tumor growth at 150 mg/kg, po BID measured by caliper relative to control; type: functional; details: HCT-116, po, read-out: TGI
[11] = system: HCT-116; test: Cell cycle arrest in human HCT-116 cells assessed as accumulation at G2 phase at 0.5 uM incubated for 24 hrs by propidium iodide staining based flow cytometric analysis (Rvb =20 %); type: functional
[12] = system: HCT-116; test: Cell cycle arrest in human HCT-116 cells assessed as accumulation at S phase at 0.1 uM incubated for 24 hrs by propidium iodide staining based flow cytometric analysis (Rvb =44.3 %); type: functional
[13] = Toxicity in BALB/c nude mouse xenografted with human HCT-116 cells assessed as effect on body weight at 150 mg/kg, po bid for 21 days relative to control; type: organism-based; details: in vivo, 504 h, time 21 day
[14] = system: HCT-116; test: Cell cycle arrest in human HCT-116 cells assessed as accumulation at S phase at 0.5 uM incubated for 24 hrs by propidium iodide staining based flow cytometric analysis (Rvb =44.3 %); type: functional
[15] = system: HCT-116; test: Induction of apoptosis in human HCT-116 cells assessed as late apoptotic cells level at 0.1 uM incubated for 48 hrs by annexin V-FITC/propidium iodide staining based flow cytometry (reference value: 1.87%); type: functional
[16] = system: HCT-116; test: Induction of apoptosis in human HCT-116 cells assessed as early apoptotic cells level at 0.1 uM incubated for 48 hrs by annexin V-FITC/propidium iodide staining based flow cytometry (reference value: 2.02%); type: functional
[17] = system: HCT-116; test: Induction of apoptosis in human HCT-116 cells assessed as increase in ratio of Bax to Bcl2 level at 0.2 to 5 uM measured after 24 hrs by Western blot analysis; type: functional, cell-based; details: dose 0.2-5 µM
[18] = molecular target: DNA topoisomerase 2-alpha (Homo sapiens) (UniProt P11388); test: Inhibition of TOP2 (unknown origin) by ethidium bromide staining based gel electrophoresis
[19] = Toxicity in BALB/c nude mouse xenografted with human HCT-116 cells assessed as effect on body weight at 60 mg/kg, po bid for 21 days relative to control; type: organism-based; details: in vivo, 504 h, time 21 day
[20] = system: A549; test: Antitumor activity against human A549 cells xenografted in BALB/c nude mouse assessed as inhibition of tumor growth at 150 mg/kg, po BID for 14 days relative to control; type: functional; details: 336 h, time 14 day, read-out: TGI
[21] = system: HCT-116; test: Induction of apoptosis in human HCT-116 cells assessed as late apoptotic cells level at 0.05 uM incubated for 48 hrs by annexin V-FITC/propidium iodide staining based flow cytometry (reference value: 1.87%); type: functional
[22] = Solubility of the compound in double distilled water; type: physicochemical
[23] = system: HCT-116; test: Cell cycle arrest in human HCT-116 cells assessed as accumulation at G1 phase at 0.5 uM incubated for 24 hrs by propidium iodide staining based flow cytometric analysis (Rvb =35.7 %); type: functional
[24] = Toxicity in BALB/c nude mouse xenografted with human A549 cells assessed as morphological changes in liver at 150 mg/kg, po bid by H&E staining based light microscopic analysis; type: organism-based; details: in vivo
[25] = system: HCT-116; test: Cell cycle arrest in human HCT-116 cells assessed as accumulation at G1 phase at 0.1 uM incubated for 24 hrs by propidium iodide staining based flow cytometric analysis (Rvb =35.7 %); type: functional
[26] = system: HCT-116; test: Induction of apoptosis in human HCT-116 cells assessed as early apoptotic cells level at 0.05 uM incubated for 48 hrs by annexin V-FITC/propidium iodide staining based flow cytometry (reference value: 2.02%); type: functional
[27] = system: A549; test: Antiproliferative activity against human A549 cells assessed as inhibition of cell proliferation incubated for 72 hrs by CCK8 assay; type: functional, cell-based; details: A549, 72 h

SMILES: CN1c2ccccc2C(=O)N2CCc3c([nH]c4ccc(OP(=O)(O)O)cc34)C21 (configuration not stated)
- Activity [1]: 13.49%
- Activity [2]: 53.4%
- Activity [3]: Active
- Activity [4]: Active
- inhibition [5]: Dose-Dependent Effect
- pIC50 [6]: 7.18
- Activity [7]: Active
- Activity [8]: Active
- inhibition [9]: Active
- inhibition in vivo at 150 mg/kg [10]: 48%
- Activity [11]: 65.3%
- Activity [12]: 40.7%
- Activity [13]: Toxic
- Activity [14]: 30.4%
- Activity [15]: 14.8%
- Activity [16]: 38.55%
- Activity [17]: Active
- inhibition [18]: Dose-Dependent Effect
- Activity [19]: Non-Toxic
- inhibition in vivo at 150 mg/kg [20]: 59%
- Activity [21]: 8.45%
- solubility [22]: 36 µg/mL (≈ 90.1 µM)
- Activity [23]: 4.3%
- Activity [24]: Non-Toxic
- Activity [25]: 6%
- Activity [26]: 15.1%
- pIC50 [27]: 5.59
